Values after ≈ are worked out from the molar mass of the structure shown.

As usually defined, the NOAEL is the highest dose or exposure tested at which no adverse effect was seen.

The test system of one series is Aphidius rhopalosiphi. The experiment in a line: LR50; higher = less toxic. The conditions noted are these: acute; duration: 48 hours; mortality.
The next series relates to Canidae. To be noted: subchronic; duration: 90 days; oral; diet; Dog Other; clinical signs.
The test system of another series is Apis mellifera. The conditions noted are these: acute; duration: 48 hours; dermal; mortality.
In the next series the test system is Tagia sp. To be noted: mortality.
For the next series, the system named is Colinus virginianus. To be noted: reproduction developmental.
Another series has as its system Anas platyrhynchos. To be noted: short-term; duration: 5 days; oral; feed; mortality.
The next series has as its system Daphnia magna. To be noted: chronic/long-term; reproduction.
The subject of a further series is Coturnix japonica. The conditions noted are these: acute; oral; mortality.
A further series relates to Rattus norvegicus. The conditions noted are these: acute; oral; mortality.

With `CNC(=O)Oc1cc(C)c(SC)c(C)c1` [Methiocarb], in the series on Aphidius rhopalosiphi, the LR50 is 0.47 g/ha. The same compound had an NOAEL with Canidae of 1.33 mg/kg-day. For the same compound, the figures for the LD50 with Apis mellifera, in the series with Coturnix japonica and in the series on Rattus norvegicus were 0.23 µg/piece, 5 mg/kg and 19 mg/kg, respectively. Besides, the LC50 was 1330 mg/kg in the series with Tagia sp. (acute); 1070 mg/kg with Anas platyrhynchos; 0.65 mg/L (≈ 2.88 µM) in the series on Oncorhynchus mykiss (acute, mortality). Also, the NOEC was found to be 0.32 mg/kg with Tagia sp. (chronic/long-term); 4.51 mg/kg-day with Colinus virginianus; 0.0001 mg/L in the series with Daphnia magna; 0.05 mg/L in the series on Oncorhynchus mykiss (chronic/long-term, growth).

Values taken from EPA's ToxValDB 9.5 (doi:10.2903/j.efsa.2006.79r).
